Test results from patent publication US4381304A, “4,9-Dihydro-4,9-dioxo-1H-cyclohepta[b]pyridine derivatives” (Ayerst, McKenna & Harrison, Inc., priority 1981, dated 1983).
Where two headings read alike, the source gives them in different places.

How the values were obtained:
[1] = stability of the salt in the presence of acid; type: physicochemical
Procedure: A mixture of 3-{[N-(methoxycarbonylmethyl)-N-methylamino]carbonyl}-4,9-dihydro-4,9-dioxo-1H-cyclohepta[b]pyridine-1-acetic acid ethyl ester (2.36 g, described in example 6) and 2% aqueous sodium hydroxide (w/v, 25 ml) was stirred at 25° C. for 4 hr. Evaporation of the reaction mixture gave the title disodium salt. […] The salt had mp>250° C.; nmr (D2 O) δ3.0 (d, 3H), 4.0 (d, 2H), 4.7 (s, 2H), 6.8-8.3 (m, 5H); ir (Nujol*) 3400, 3150, 1610 cm^-1 (with inflections at 1625 and 1585 cm^-1); uv λ max (MeOH) 340 nm (ε7,390), 237 (13,000); Anal Calcd for C16 H12 N2 O7 Na2.3H2 O: C, 43.24% H, 4.08% […]; Found: C, 42.76% H, 3.57%, N, 7.18%.

[2] = system: diabetic complications such as diabetic cataracts, neuropathy, nephropathy and retinopathy; conditions: literature report (U.S. Pat. No. 3,821,383); cited from earlier work
[3] = system: aldose reductase; conditions: literature report; cited from earlier work
[4] = biological target: T1, aldose reductase (Bos taurus, UniProt P16116); test: in vitro aldose reductase inhibition (modified Hayman and Kinoshita procedure); type: biochemical, bovine (lens); conditions: for inhibition at 10 µM: read-out: % Inhibition at Different Molar Concentrations (in vitro), 10^-5; for inhibition at 1 µM: 10^-6 molar, read-out: % Inhibition at Different Molar Concentrations (in vitro), 10^-6; for inhibition at 0.1 µM: 10^-7 molar, read-out: % Inhibition at Different Molar Concentrations (in vitro), 10^-7
T1 construct: preparation of the enzyme from bovine lens; from tissue; host or cells: bovine lens
From the text: In the present case the procedure of Hayman and Kinoshita is modified in that the final chromatography step is omitted in the preparation of the enzyme from bovine lens.

[5] = 10^-5 molar, enzyme from bovine lens

inhibition at 10 µM [4, 5] | inhibition at 1 µM ([4]; enzyme from bovine lens) | inhibition at 0.1 µM ([4]; enzyme from bovine lens) | SMILES | further results
 |  |  | CN(CC(=O)[O-])C(=O)c1cn(CC(=O)[O-])c2c(=O)ccccc2c1=O.[Na+].[Na+] | stability in the presence of acid [1]: decomposed in the presence of acid
 |  |  | O=C(O)CN1C(=O)c2cccc3cccc(c23)C1=O [1,3-Dioxo-1H-benz[de]isoquinoline-2(3H)-acetic acid] | usefulness for the treatment of diabetic complications (in words) [2]: useful for the treatment of diabetic complications such as diabetic cataracts, neuropathy, nephropathy and retinopathy; aldose reductase inhibition (in words) [3]: effective inhibitor of aldose reductase
84% | 53% | 16% | O=C(O)Cn1cc(C(=O)O)c(=O)c2cc(O)ccc(=O)c21 [Example 4 (R^1 COOH, R^2 6-OH), 3-carboxy-4,9-dihydro-6-hydroxy-4,9-dioxo-1H-cyclohepta[b]pyridine-1-acetic acid] | 
 |  |  | CN(CC(=O)[O-])C(=O)c1cn(CC(=O)[O-])c2c(=O)ccccc2c1=O.[Na+].[Na+] [Disodium Salt] | inhibition at 10 µM [4]: 22%
81% | 47% | 14% | O=C(O)Cn1cc(C(=O)O)c(=O)c2cccc(Br)c(=O)c21 [Example 4 (R^1 COOH, R^2 8-Br), 8-bromo-3-carboxy-4,9-dihydro-4,9-dioxo-1H-cyclohepta[b]pyridine-1-acetic acid] | 
 |  |  | O=C1NC(=O)[C@@]2(CCOc3ccc(F)cc32)N1 [sorbinil, (S)-6-Fluoro-2,3-dihydrospiro(4H-1-benzopyran-4,4'-imidazolidine)-2',5'-dione] | aldose reductase inhibition (in words) [3]: aldose reductase inhibiting properties
89% | 65% | 19% | O=C(O)Cn1cc(C(=O)O)c(=O)c2ccccc(=O)c21 [Example 4 (R^1 COOH, R^2 H), 3-Carboxy-4,9-dihydro-4,9-dioxo-1H-cyclohepta[b]pyridine-1-acetic Acid] | 
